{
  "source": "patent US20090016990A1",
  "about": "“Antimicrobial Compositions” (priority 2007, published 2009)",
  "key": {"P aeruginosa 10145 [1]": {"system": "P aeruginosa 10145", "test": "Synergy of Zosteric Acid (ZA) with Kathon, MIC in M9GY", "format": "cell-based", "conditions": "ZA alone"}, "P aeruginosa 10145 [2]": {"system": "P aeruginosa 10145", "test": "Synergy of Zosteric Acid (ZA) with HOCL, MIC in M9GY", "format": "cell-based"}, "[3]": {"conditions": "ZA alone, M9GY, highest value tested, used for SI calculations"}},
  "data": [
    {"compound": "O=C(O)/C=C/c1ccc(OS(=O)(=O)O)cc1", "note": "[ZA, Zosteric Acid]", "values": [
      {"measurement": "QZA, MIC at 24 hours (ppm)", "setting": "P aeruginosa 10145 [1]; 24 hours", "value": "10,000 ppm"},
      {"measurement": "QZA, MIC at 48 hours (ppm)", "setting": "P aeruginosa 10145 [1]; 48 hours", "value": "10,000 ppm"},
      {"measurement": "MIC at 24 hours, QZA", "setting": "P aeruginosa 10145 [2]; [3]", "value": "10,000 ppm"},
      {"measurement": "MIC at 48 hours, QZA", "setting": "P aeruginosa 10145 [2]; [3]", "value": "10,000 ppm"},
      {"measurement": "MIC for ZA", "setting": "P aeruginosa 10145 [2]; table note, 10,000 ppm was the highest value tested", "value": "MIC for ZA is greater than 10,000 ppm, but since it was the highest value tested it was used for SI calculations."}
    ]}
  ]
}
